Experimental data: US8557800B2, “Sphingosine kinase inhibitors” (Apogee Biotechnology Corporation, priority 2005, dated 2013)
Read-outs that look alike come from different tables or passages of the source.

How the values were obtained:
Abl = Abl (Homo sapiens, UniProt P00519); experiment: Kinase selectivity panel; type: biochemical; details: read-out: percent of control activity, Abl
Experimental: (§1) A common problem with attempts to develop protein kinase inhibitors is the lack of selectivity toward the target kinase since the majority of these compounds interact with nucleotide-binding domains that are highly conserved among kinases. […] The compound was tested at a single concentration of 50 μM.

CDK1/cyclinB = CDK1/cyclinB (Homo sapiens, UniProt P06493); experiment: Kinase selectivity panel; type: biochemical; details: read-out: percent of control activity, CDK1/cyclinB
Sequence of CDK1/cyclinB (P06493 whole entry, species assumed): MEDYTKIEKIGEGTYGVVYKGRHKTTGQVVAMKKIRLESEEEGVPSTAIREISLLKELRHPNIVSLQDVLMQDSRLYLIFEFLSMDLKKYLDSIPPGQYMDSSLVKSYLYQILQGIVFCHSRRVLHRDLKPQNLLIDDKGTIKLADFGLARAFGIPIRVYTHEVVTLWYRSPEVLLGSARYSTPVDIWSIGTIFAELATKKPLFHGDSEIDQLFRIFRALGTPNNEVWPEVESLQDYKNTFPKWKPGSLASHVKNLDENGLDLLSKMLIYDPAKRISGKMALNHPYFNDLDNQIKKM
Sequence of CDK1/cyclinB (P14635 whole entry partner, species assumed): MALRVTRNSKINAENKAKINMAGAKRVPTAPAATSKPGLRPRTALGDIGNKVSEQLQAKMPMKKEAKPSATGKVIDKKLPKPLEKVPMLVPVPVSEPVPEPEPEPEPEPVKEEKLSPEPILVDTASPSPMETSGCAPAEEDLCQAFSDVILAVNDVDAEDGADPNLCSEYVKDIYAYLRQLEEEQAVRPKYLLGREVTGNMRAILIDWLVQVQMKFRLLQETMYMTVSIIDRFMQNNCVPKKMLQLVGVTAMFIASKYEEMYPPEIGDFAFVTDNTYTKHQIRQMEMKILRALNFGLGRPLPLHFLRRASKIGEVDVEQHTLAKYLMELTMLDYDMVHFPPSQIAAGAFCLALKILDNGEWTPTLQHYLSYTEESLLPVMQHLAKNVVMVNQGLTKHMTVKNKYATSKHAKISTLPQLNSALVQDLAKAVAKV
Experimental: as §1

CHK1 = CHK1 (Homo sapiens, UniProt O14757); experiment: Kinase selectivity panel; type: biochemical; details: read-out: percent of control activity, CHK1
Sequence of CHK1 (O14757 whole entry, species assumed): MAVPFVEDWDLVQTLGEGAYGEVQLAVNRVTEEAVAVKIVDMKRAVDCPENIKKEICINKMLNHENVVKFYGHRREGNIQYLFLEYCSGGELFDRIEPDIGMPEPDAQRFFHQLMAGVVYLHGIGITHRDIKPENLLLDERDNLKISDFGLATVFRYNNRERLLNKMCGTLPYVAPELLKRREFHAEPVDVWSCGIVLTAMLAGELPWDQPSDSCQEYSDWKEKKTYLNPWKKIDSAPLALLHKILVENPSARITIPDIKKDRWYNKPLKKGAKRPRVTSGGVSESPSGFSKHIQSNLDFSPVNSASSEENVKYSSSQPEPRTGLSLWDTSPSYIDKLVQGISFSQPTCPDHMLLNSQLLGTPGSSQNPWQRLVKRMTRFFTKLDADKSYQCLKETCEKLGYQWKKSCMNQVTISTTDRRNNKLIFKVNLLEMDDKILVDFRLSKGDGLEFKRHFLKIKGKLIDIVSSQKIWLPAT
Experimental: as §1

Ca^2+/calmodulin PK IV = Ca^2+/calmodulin PK IV (Homo sapiens, UniProt Q16566); experiment: Kinase selectivity panel; type: biochemical; details: read-out: percent of control activity, Ca^2+/calmodulin PK IV
Experimental: as §1

EFGR = EFGR (Homo sapiens, UniProt P00533); experiment: Kinase selectivity panel; type: biochemical; details: read-out: percent of control activity, EFGR
Sequence of EFGR (P00533 25-1210): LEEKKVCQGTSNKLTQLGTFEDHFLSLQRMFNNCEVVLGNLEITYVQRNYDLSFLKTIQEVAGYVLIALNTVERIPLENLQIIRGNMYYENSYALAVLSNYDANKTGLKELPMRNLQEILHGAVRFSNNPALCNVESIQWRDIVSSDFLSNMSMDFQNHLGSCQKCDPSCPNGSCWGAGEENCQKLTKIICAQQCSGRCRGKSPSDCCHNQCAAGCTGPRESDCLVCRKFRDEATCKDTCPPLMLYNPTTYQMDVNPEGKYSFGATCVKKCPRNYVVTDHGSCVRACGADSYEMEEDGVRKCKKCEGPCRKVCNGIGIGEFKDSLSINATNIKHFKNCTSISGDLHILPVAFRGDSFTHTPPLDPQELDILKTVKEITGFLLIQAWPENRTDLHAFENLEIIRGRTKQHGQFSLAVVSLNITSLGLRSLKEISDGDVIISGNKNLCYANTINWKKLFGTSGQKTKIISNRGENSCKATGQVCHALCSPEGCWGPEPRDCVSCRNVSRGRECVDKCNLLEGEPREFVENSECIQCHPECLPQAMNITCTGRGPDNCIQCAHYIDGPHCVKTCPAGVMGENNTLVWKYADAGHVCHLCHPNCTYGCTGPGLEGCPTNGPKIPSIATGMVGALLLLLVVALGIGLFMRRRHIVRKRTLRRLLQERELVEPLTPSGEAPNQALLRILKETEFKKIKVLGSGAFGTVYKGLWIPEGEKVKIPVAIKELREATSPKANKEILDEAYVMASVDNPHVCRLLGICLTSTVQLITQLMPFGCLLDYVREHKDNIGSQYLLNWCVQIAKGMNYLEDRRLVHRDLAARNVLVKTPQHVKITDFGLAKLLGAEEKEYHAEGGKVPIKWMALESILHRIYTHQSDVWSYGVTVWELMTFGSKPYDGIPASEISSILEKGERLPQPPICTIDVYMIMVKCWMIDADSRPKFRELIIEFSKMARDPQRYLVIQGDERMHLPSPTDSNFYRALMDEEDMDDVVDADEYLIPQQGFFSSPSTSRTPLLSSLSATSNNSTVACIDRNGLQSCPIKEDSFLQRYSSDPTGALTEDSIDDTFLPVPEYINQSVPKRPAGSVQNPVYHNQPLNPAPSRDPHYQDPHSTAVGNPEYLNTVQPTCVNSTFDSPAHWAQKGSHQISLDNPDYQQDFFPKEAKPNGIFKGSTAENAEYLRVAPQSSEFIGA
Experimental: as §1

MEK kinase 1 = experiment: Kinase selectivity panel; type: biochemical; details: 50 μM
Experimental: as §1

PDK1 = PDK1 (Homo sapiens, UniProt O15530); experiment: Kinase selectivity panel; type: biochemical; details: read-out: percent of control activity, PDK1
Sequence of PDK1 (O15530 whole entry): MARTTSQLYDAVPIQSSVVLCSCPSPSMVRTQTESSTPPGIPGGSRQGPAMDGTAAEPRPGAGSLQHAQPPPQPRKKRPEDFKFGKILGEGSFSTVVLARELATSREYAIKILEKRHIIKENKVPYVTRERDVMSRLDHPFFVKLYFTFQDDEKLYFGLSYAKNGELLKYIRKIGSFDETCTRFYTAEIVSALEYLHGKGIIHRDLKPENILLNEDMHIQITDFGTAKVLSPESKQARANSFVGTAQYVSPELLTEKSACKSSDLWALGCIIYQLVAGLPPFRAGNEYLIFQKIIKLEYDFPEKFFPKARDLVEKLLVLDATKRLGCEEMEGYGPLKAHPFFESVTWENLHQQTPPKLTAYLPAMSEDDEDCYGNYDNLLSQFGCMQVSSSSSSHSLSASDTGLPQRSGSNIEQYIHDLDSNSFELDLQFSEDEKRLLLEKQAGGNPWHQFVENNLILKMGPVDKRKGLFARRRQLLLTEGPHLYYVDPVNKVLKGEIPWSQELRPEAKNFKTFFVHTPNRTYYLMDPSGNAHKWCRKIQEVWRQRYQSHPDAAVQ
Experimental: as §1

PKA = PKA (Homo sapiens, UniProt P17612); experiment: Kinase selectivity panel; type: biochemical; details: read-out: percent of control activity, PKA
Experimental: as §1

PKBγ = PKBγ (Homo sapiens, UniProt Q9Y243); experiment: Kinase selectivity panel; type: biochemical; details: read-out: percent of control activity, PKBγ
Sequence of PKBγ (Q9Y243 whole entry, species assumed): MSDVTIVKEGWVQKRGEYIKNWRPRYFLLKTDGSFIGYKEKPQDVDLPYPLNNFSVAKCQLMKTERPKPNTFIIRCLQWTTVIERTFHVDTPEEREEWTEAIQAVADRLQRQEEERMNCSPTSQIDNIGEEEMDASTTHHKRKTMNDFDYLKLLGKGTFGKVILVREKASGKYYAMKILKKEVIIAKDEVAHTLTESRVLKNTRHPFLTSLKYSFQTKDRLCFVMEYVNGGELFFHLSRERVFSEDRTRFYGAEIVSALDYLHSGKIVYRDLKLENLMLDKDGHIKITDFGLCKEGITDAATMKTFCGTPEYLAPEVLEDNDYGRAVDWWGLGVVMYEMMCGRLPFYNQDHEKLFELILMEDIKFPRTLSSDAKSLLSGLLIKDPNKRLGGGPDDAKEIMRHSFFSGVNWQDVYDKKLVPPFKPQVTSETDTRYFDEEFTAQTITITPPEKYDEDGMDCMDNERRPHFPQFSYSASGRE
Experimental: as §1

Protein kinase C α = Protein kinase C α (Homo sapiens, UniProt P17252); experiment: Kinase selectivity panel; type: biochemical; details: read-out: percent of control activity, Protein kinase C α
Experimental: as §1

Protein kinase C ε = Protein kinase C ε (Homo sapiens, UniProt Q02156); experiment: Kinase selectivity panel; type: biochemical; details: read-out: percent of control activity, Protein kinase C ε
Sequence of Protein kinase C ε (Q02156 whole entry): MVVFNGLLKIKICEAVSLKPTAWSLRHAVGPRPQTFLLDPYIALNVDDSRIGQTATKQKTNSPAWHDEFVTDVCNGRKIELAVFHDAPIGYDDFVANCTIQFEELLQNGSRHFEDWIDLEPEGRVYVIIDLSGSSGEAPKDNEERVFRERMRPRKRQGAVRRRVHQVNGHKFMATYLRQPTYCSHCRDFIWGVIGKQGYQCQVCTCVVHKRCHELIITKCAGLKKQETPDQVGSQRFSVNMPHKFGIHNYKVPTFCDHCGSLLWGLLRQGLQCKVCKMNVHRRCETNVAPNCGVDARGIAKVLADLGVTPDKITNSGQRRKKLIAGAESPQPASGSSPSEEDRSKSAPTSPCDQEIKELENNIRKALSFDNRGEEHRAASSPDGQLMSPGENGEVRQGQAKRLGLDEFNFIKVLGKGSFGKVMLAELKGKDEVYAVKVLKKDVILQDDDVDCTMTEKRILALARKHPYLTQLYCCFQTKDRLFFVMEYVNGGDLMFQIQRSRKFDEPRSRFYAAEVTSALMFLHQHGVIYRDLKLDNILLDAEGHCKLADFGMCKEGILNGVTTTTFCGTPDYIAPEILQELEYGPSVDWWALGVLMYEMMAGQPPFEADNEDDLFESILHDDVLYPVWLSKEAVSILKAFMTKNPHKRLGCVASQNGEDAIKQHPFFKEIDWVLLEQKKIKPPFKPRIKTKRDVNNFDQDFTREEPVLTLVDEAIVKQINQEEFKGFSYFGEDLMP
Experimental: as §1

1025LU (melanoma) = experiment: Human tumor cell line panel, sulforhodamine B; type: cell-based; details: 48 hours, mean ± sd
A-498 (kidney) = experiment: Human tumor cell line panel, sulforhodamine B; type: cell-based; details: A498, 48 hours, mean ± sd
MCF-7 (breast, ER+) = experiment: Human tumor cell line panel, sulforhodamine B; type: cell-based; details: MCF7, 48 hours, mean ± sd
SK-OV-3 (ovary) = experiment: Human tumor cell line panel, sulforhodamine B; type: cell-based; details: 48 hours, mean ± sd
[1] = Oral pharmacokinetics in mice (PEG400); type: in vivo; details: mouse, blood, 100 mg/kg oral gavage in PEG400, female Swiss-Webster mice
Experimental: Oral pharmacokinetic studies were performed on Compounds 62 and 57. Each compound was dissolved in PEG400 and administered to female Swiss-Webster mice at a dose of 100 mg/kg by oral gavage. Mice were anesthetized and blood was removed via cardiac puncture at 5 minutes, 30 minutes, 1, 2, and 8 hours. Concentrations of the test compounds were determined using liquid-liquid extraction, appropriate internal standards and reverse phase HPLC with UV detection. Control blood samples were run to identify compound-specific peaks. Pharmacokinetic parameters were calculated using the WINNONLIN analysis software package (Pharsight). Non-compartmental and compartmental models were tested, with the results shown in Table 7 derived from the best fit equations.

[2] = test system: VEGF-induced vascular leakage; experiment: VEGF-induced vascular permeability (Miles assay); type: in vivo, mouse; details: 75 mg/kg intraperitoneal or 100 mg/kg oral gavage, nude mice
Experimental: The effects of VEGF on vascular leakage in vivo were measured as described by Miles and Miles (Miles et al., 1952, J Physiol 118: 228). Groups of female athymic nude mice (approximately 20 g) were given intraperitoneal injections of DMSO alone or Compound 62 (75 mg/kg) in a volume of 50 microliters. In some experiments, Compound 62 was administered by oral gavage at a dose of 100 mg/kg. After 30 minutes, 100 μL of 0.5% Evan's blue dye in PBS was administered by tail vein injection. Thirty minutes later, mice received the first of 3 sequential (every 30 minutes) intradermal injections of VEGF (400 ng in 20 μL of PBS per injection) on the left hind flank. As a control, similar injections of PBS were administered on the right hind flank. Thirty minutes after the last injection, leakage of the dye from the vasculature into the skin was assessed by measuring the length and width of the spots of blue-colored skin using calipers.

[3] = test system: Cox-2 activity in IEC6 rat intestinal epithelial cells; experiment: TNFα-induced PGE2 production, ELISA; type: cell-based; details: 100 ng of TNFα/mL 18 hours
Experimental: (§2) FIG. 6. Inhibition of TNFα-induced Cox-2 activity by Compound 62. Rat IEC6 cells (Panel A) or human endothelial cells (Panel B) were incubated for 18 hours with dimethylsulfoxide (DMSO) as a solvent control, or 100 ng of TNFα/mL in the presence of DMSO or […] of Compound 62. Levels of PGE2 secreted into the medium were quantified by ELISA. Values represent the mean±sd for triplicate samples in a typical experiment.
(§3) To determine the effects of the SK inhibitors on Cox-2 activity, an ELISA assay was used to measure PGE2 production by IEC6 rat intestinal epithelial cells and human endothelial cells treated with TNFα.

[4] = test system: Cox-2 activity in human endothelial cells; experiment: TNFα-induced PGE2 production, ELISA; type: cell-based; details: 100 ng of TNFα/mL 18 hours
Experimental: as §2, §3

[5] = test system: male Lewis rats, adjuvant-induced arthritis; experiment: Adjuvant-induced arthritis model; type: in vivo, rat
Experimental: Adjuvant-induced arthritis is another widely used assay that recapitulates many features of human rheumatoid arthritis, and so is useful in the evaluation of new drug candidates. Age- and weight-matched male Lewis rats (150-170 g) were injected subcutaneously in the tail with 1 mg of Mycobacterium butyricum (Difco, killed dried) suspended in 0.1 ml of light mineral oil. Symptoms of immune reactivity were present after 2 weeks. Responsive rats were randomized into treatment groups, and received oral daily doses (1 ml) of: solvent alone (0.375% Tween-80); 100 mg/kg Compound 62; 35 mg/kg Compound 62; or 5 mg/kg Compound 62, or intraperitoneal injections of indomethacin (5 mg/kg) every other day as a positive control. The severity of disease in each animal was quantified by measurement of the hind paw thickness.

## O=C(NCc1ccncc1)C12CC3CC(C1)CC(c1ccc(Cl)cc1)(C3)C2 [Compound 62, 3-(4-Chloro-phenyl)-adamantane-1-carboxylic acid (pyridin-4-ylmethyl)-amide]
Abl
  remaining activity at 50 µM: 98%
CDK1/cyclinB
  remaining activity at 50 µM: 105 ± 1%
CHK1
  remaining activity at 50 µM: 142 ± 13%
Ca^2+/calmodulin PK IV
  remaining activity at 50 µM: 81 ± 3%
EFGR
  remaining activity at 50 µM: 101 ± 3%
MEK kinase 1
  percent of control activity, MEK kinase 1: 104 ± 3%
PDK1
  remaining activity at 50 µM: 116 ± 3%
PKA
  remaining activity at 50 µM: 104 ± 5%
PKBγ
  remaining activity at 50 µM: 105 ± 8%
Protein kinase C α
  remaining activity at 50 µM: 86 ± 5%
Protein kinase C ε
  remaining activity at 50 µM: 101 ± 1%
1025LU (melanoma)
  IC50: 33.7 ± 2.7 µM
A-498 (kidney)
  IC50: 12.2 ± 6 µM
MCF-7 (breast, ER+)
  IC50: 18.4 ± 7.4 µM
SK-OV-3 (ovary)
  IC50: 10.5 ± 2.6 µM
[1]
  Cmax: 55.8 µM
  Tmax: 0.5 h
  half-life: 7.3 h
[1]; read-out: AUC0→∞ (μM * h)
  AUC(0-inf): 452 µM·h
[1]; read-out: AUC0→∞ (μg * h/mL)
  AUC(0-inf): 172 µg·h/mL
[2]
  vascular leakage in response to VEGF: markedly reduced
[3]
  induction of Cox-2 activity by TNFα (PGE2 production): strongly suppressed
[4]
  induction of Cox-2 activity by TNFα (PGE2 production): strongly suppressed
[5]; 5 mg/kg oral daily
  reduction in the arthritic response (hind paw thickness): 13%
[5]; 35 mg/kg oral daily
  reduction in the arthritic response (hind paw thickness): 42%
[5]; 100 mg/kg oral daily
  reduction in the arthritic response (hind paw thickness): 76%
